The results in this text go back to patent publication US20050026911A1, “Benzotriazapinone salts and methods for using same” (priority 2003, published 2005).

In the test the target is T1, gastrin (CCK2) receptors (Rattus norvegicus, UniProt P30553).
T1 construct: The stomach was excised and flushed with ca. 1 ml of unbuffered physiological saline solution; from tissue; host or cells: isolated whole stomach of immature rats (ca. 21 days old)
T1 sequence (P30553 1-452): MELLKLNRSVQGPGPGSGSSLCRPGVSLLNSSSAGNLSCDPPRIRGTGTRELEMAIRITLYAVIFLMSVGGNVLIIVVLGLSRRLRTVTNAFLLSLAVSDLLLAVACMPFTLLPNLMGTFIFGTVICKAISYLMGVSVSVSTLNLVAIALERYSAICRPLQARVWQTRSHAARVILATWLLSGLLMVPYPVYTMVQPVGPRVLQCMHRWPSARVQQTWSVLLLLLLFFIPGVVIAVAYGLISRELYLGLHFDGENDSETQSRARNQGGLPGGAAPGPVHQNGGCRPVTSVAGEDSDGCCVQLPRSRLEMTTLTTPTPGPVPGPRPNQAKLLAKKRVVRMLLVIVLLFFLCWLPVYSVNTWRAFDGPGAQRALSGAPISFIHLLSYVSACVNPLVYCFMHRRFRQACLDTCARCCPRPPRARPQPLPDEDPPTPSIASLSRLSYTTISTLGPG
In words: gastrin (CCK2) antagonist activity in an immature rat stomach assay. The settings on record: pentagastrin dose-response curves, acid secretion, read-out: pKB rat stomach (converted). As to the method: The compounds of the examples were tested for gastrin (CCK2) antagonist activity in an immature rat stomach assay. The procedure was as follows:
The oesophagus of immature rats (33-50 g, ca. 21 days old) was ligated at the level of the cardiac sphincter and the duodenal sphincter was cannulated. The stomach was excised and flushed with ca. 1 ml of unbuffered physiological saline solution. The fundus was punctured and cannulated. A further 4-5 ml of unbuffered solution was flushed through the stomach to ensure the preparation was not leaking. […] The stomach was continuously perfused at a rate of 1 ml min^−1 with unbuffered solution gassed with 100% O2 with the perfusate passing over an internally referenced pH-electrode fixed 12 cm above the stomach.
After 120 min of stabilisation the drugs were added directly to the serosal solution in the organ bath and after a further 60 min cumulative pentagastrin dose-response curves were started.
With `CC(Nc1cccc(NC(=O)CN2N=C(C3CCCCC3)c3ccccc3N(CC(=O)C(C)(C)C)C2=O)c1)C(=O)O` (racemic) [Example 75, 2-(3{2-[5-Cyclohexyl-1-(3,3-dimethyl-2-oxo-butyl)-2-oxo-1,2-dihydro-3H-1,3,4-benzotriazepin-3-yl]-acetylamino}-phenylamino)-propionic acid], the Kb is 209 nM. Regarding `CC(C)(C)C(=O)CN1C(=O)N(CC(=O)Nc2cccc(N3CCCC3C(=O)O)c2)N=C(C2CCCCC2)c2ccccc21` (stereo in doubt) [Example 76, (R)-]-(3-{2-[5-Cyclohexyl-1-(3,3-dimethyl-2-oxobutyl)-2-oxo-1,2-dihydro-3H-1,3,4-benzotriazepin-3-yl]-acetylamino}-phenyl)-pyrrolidine-2-carboxylic acid], the Kb is 110 nM.

Regarding `COC(=O)c1cccc(NC(=O)CN2N=C(C3CCCCC3)c3ccccc3N(CC(=O)C(C)(C)C)C2=O)c1` [Example 1, 3-{2-[5-Cyclohexyl-1-(3,3-dimethyl-2-oxo-butyl)-2-oxo-1,2-dihydro-3H-1,3,4-benzotriazepin-3-yl]-acetylamino}-benzoic acid methyl ester], the Kb was 2.82 nM. On to `CC(C)(C)C(=O)CN1C(=O)N(CC(=O)Nc2cccc(C(=O)O)c2)N=C(C2CCCCC2)c2ccccc21` [Example 2, 3-{2-[5-Cyclohexyl-1-(3,3-dimethyl-2-oxo-butyl)-2-oxo-1,2-dihydro-3H-1,3,4-benzotriazepin-3-yl]-acetylamino}-benzoic acid], for which the Kb is 0.661 nM. As for `CNc1cccc(NC(=O)CN2N=C(c3ccccc3)c3ccccc3N(CC(=O)C(C)(C)C)C2=O)c1` [Example 4, 2-[1-(3,3-Dimethyl-2-oxo-butyl)-2-oxo-5-phenyl-1,2-dihydro-3H-1,3,4-benzotriazepin-3-yl]-N-(3-methylamino-phenyl)-acetamide], the figure is 132 nM. The same measure for `CNc1cccc(NC(=O)CN2N=C(c3ccccn3)c3ccccc3N(CC(=O)C(C)(C)C)C2=O)c1` [Example 5, 2-[1-(3,3-Dimethyl-2-oxo-butyl)-2-oxo-5-pyridin-2-yl-1,2-dihydro-3H-1,3,4-benzotriazepin-3-yl]-N-(3-methylamino-phenyl)-acetamide]: 240 nM; for `CNc1cccc(NC(=O)CN2N=C(c3ccccn3)c3ccccc3N(CC(=O)N3CCCC3)C2=O)c1` [Example 6]: 1050 nM. Turning to `CNc1cccc(NC(=O)CN2N=C(c3ccccn3)c3ccccc3N(CC(=O)c3ccccc3C)C2=O)c1` [Example 7, N-(3-Methylamino-phenyl)-2-[2-oxo-1-(2-oxo-2-o-tolyl-ethyl)-5-pyridin-2-yl-1,2-dihydro-3H-1,3,4-benzotriazepin-3-yl]-acetamide], the Kb was 50.1 nM.

For the molecule `CNc1cccc(NC(=O)NCN2N=C(c3ccccn3)c3ccccc3N(CC(=O)C(C)(C)C)C2=O)c1` [Example 8, 1-[1-(3,3-Dimethyl-2-oxo-butyl)-2-oxo-5-pyridin-2-yl-1,2-dihydro-3H-1,3,4-benzotriazepin-3-ylmethyl]-3-(3-methylamino-phenyl)-urea], the Kb was 263 nM.

`CC(C)(C)C(=O)CN1C(=O)N(CC(=O)Nc2cccc(C(=O)O)c2)N=C(C2CCCC2)c2ccccc21` [Example 9, 3-{2-[5-Cyclopentyl-1-(3,3-dimethyl-2-oxo-butyl)-2-oxo-1,2-dihydro-3H-1,3,4-benzotriazepin-3-yl]-acetylamino}-benzoic acid]: the Kb was 75.9 nM.

Turning to `CC(C)(C)C(=O)CN1C(=O)N(CC(=O)Nc2cccc(-c3nn[nH]n3)c2)N=C(C2CCCC2)c2ccccc21` [Example 10, 2-[5-Cyclopentyl-1-(3,3-dimethyl-2-oxo-butyl)-2-oxo-1,2-dihydro-3H-1,3,4-benzotriazepin-3-yl]-[3-(2H-tetrazol-5-yl)-phenyl]-acetamide], the Kb is 89.1 nM.

In the case of `CNc1cccc(NC(=O)CN2N=C(C3CCCC3)c3ccccc3N(CC(=O)C(C)(C)C)C2=O)c1` [Example 11, 2-[5-Cyclopentyl-1-(3,3-dimethyl-2-oxo-butyl)-2-oxo-1,2-dihydro-3H-1,3,4-benzotriazepin-3-yl]-N-(3-methylaminophenyl)-acetamide], the Kb is 44.7 nM. In the case of `CNc1cccc(NC(=O)CN2N=C(CC(C)C)c3ccccc3N(CC(=O)C(C)(C)C)C2=O)c1` [Example 13, 2-[1-(3,3-Dimethyl-2-oxo-butyl)-5-isobutyl-2-oxo-1,2-dihydro-3H-1,3,4-benzotriazepin-3-yl]-N-(3-methylaminophenyl)-acetamide], the Kb was 51.3 nM.

With `CC(C)CCN1C(=O)N(CC(=O)Nc2cccc(C(=O)O)c2)N=C(C2CCCCC2)c2ccccc21` [Example 16, 3-{2-[5-Cyclohexyl-1-(3-methyl-butyl)-2-oxo-1,2-dihydro-3H-1,3,4-benzotriazepin-3-yl]-acetylamino}-benzoic acid], the Kb was 42.7 nM. As for `O=C(CN1N=C(C2CCCCC2)c2ccccc2N(CC(=O)C23CC4CC(CC(C4)C2)C3)C1=O)Nc1cccc(C(=O)O)c1` [Example 17, 3-{2-[1-(2-Adamantan-1-yl-2-oxo-ethyl)-5-cyclohexyl-2-oxo-1,2-dihydro-3H-1,3,4-benzotriazepin-3-yl]-acetylamino}-benzoic acid], the Kb is 115 nM. Regarding `CC(C)(C)C(=O)CN1C(=O)N(CC(=O)Nc2cccc(-c3nn[nH]n3)c2)N=C(C2CCCCC2)c2ccccc21` [Example 23, 2-[5-Cyclohexyl-1-(3,3-dimethyl-2-oxo-butyl)-2-oxo-1,2-dihydro-3H-1,3,4-benzotriazepin-3-yl]-N-[3-(2H-tetrazol-5-yl)-phenyl]-acetamide], the Kb was 11.2 nM. As to `CC(C)(C)C(=O)CN1C(=O)N(CC(=O)Nc2cccc(NS(C)(=O)=O)c2)N=C(C2CCCCC2)c2ccccc21` [Example 26, 2-[5-Cyclohexyl-1-(3,3-dimethyl-2-oxo-butyl)-2-oxo-1,2-dihydro-3H-1,3,4-benzotriazepin-3-yl]-N-(3-methanesulfonylamino-phenyl)-acetamide], the Kb was 457 nM. As for `CC(C)(C)C(=O)CN1C(=O)N(CC(=O)Nc2cccc(CC(=O)O)c2)N=C(C2CCCCC2)c2ccccc21` [Example 29, (3-{2-[5-Cyclohexyl-1-(3,3-dimethyl-2-oxo-butyl)-2-oxo-1,2-dihydro-3H-1,3,4-benzotriazepin-3-yl]-acetylamino}-phenyl)-acetic acid], the figure is 61.7 nM; as for `COc1ccc(NC(=O)CN2N=C(C3CCCCC3)c3ccccc3N(CC(=O)C(C)(C)C)C2=O)cc1` [Example 32, 2-[5-Cyclohexyl-1-(3,3-dimethyl-2-oxo-butyl)-2-oxo-1,2-dihydro-3H-1,3,4-benzotriazepin-3-yl]-N-(4-methoxy-phenyl)-acetamide], 77.6 nM. As for `CN(C)c1cccc(NC(=O)CN2N=C(C3CCCCC3)c3ccccc3N(CC(=O)C(C)(C)C)C2=O)c1` [Example 33, 2-[5-Cyclohexyl-J-(3,3-dimethyl-2-oxo-butyl)-2-oxo-1,2-dihydro-3H-1,3,4-benzotriazepin-3-yl]-N-(3-dimethylamino-phenyl)-acetamide], the figure is 91.2 nM; as for `CC(C)(C)C(=O)CN1C(=O)N(CC(=O)Nc2ccc3c(c2)N(CC(=O)O)CC3)N=C(C2CCCCC2)c2ccccc21` [Example 34, (6-{2-[5-Cyclohexyl-1-(3,3-dimethyl-2-oxo-butyl)-2-oxo-1,2-dihydro-3H-1,3,4-benzotriazepin-3-yl]-acetylamino}-2,3-dihydro-indol-1-yl)-acetic acid], 15.8 nM; as for `CC(C)(C)C(=O)CN1C(=O)N(CC(=O)Nc2cccc(SCC(=O)O)c2)N=C(C2CCCCC2)c2ccccc21` [Example 38, (3-{2-[5-Cyclohexyl-1-(3,3-dimethyl-2-oxo-butyl)-2-oxo-1,2-dihydro-3H-1,3,4-benzotriazepin-3-yl]-acetylamino}-phenylsulfanyl)-acetic acid], 6.61 nM.

As to `CC(C)(C)C(=O)CN1C(=O)N(CC(=O)Nc2cc(C(=O)O)cc(C(=O)O)c2)N=C(C2CCCCC2)c2ccccc21` [Example 39, 5-{2-[5-Cyclohexyl-1-(3,3-dimethyl-2-oxo-butyl)-2-oxo-1,2-dihydro-3H-1,3,4-benzotriazepin-3-yl]-acetylamino}-isophthalic acid], the Kb is 7.59 nM.

In the case of `CC(C)(C)C(=O)CN1C(=O)N(CC(=O)Nc2cccc(C(=O)NS(C)(=O)=O)c2)N=C(C2CCCCC2)c2ccccc21` [Example 40], the Kb is 22.9 nM. As for `CCOCCNc1cccc(NC(=O)CN2N=C(C3CCCCC3)c3ccccc3N(CC(=O)C(C)(C)C)C2=O)c1` [Example 42, 2-[5-Cyclohexyl-1-(3,3-dimethyl-2-oxo-butyl)-2-oxo-1,2-dihydro-3H-1,3,4-benzotriazepin-3-yl]-N-[3-(2-ethoxy-ethylamino)-phenyl)-acetamide], the figure is 105 nM.
